Assay [1] relates to LPS induced neutrophilia. Kind of assay: LPS induced neutrophilia, Compound 52 and aclidinium bromide. The class given is in vivo, male SD rats. Particulars: BAL 4 h after LPS, Compound 52 3 mg/kg p.o., aclidinium 50 mcg/ml inh; for inhibition at 3 mg/kg: Rattus norvegicus, Neutrophil, po, read-out: No of neutrophils, % inhibition (mean ± S.E.M.) (converted). As for the experimental part: The effect of combination of Compound 52 and aclidinium bromide on LPS induced neutrophilia in male SD rats was evaluated. Animals were grouped as mentioned in Table 4.
LPS was nebulized at concentration of 100 mcg ml^−1 for 40 min at 0.4 ml/min and a pressure of 1.7 psig in a Perspex exposure chamber (1.5×1×1 ft) fitted with nebulizer (RCI Hudson). Control animals were given saline exposure under similar conditions. All the animals were treated with compounds as mentioned in Table 4. Compound 52 (3 mg/kg/5 ml) was administered orally 2 h prior to LPS and aclidinium (50 mcg/ml) was nebulized at the rate of 0.05 ml/min and exposed to the animals for 3 min prior LPS exposure.
Bronchoalveolar lavage (BAL) was done after 4 h of LPS exposure. Animals were anesthetized with urethane (1.2 gm/kg/5 mL, i.p. in normal saline) and BAL was done with PBS (3 ml). This procedure was repeated three times and the BAL fluid was pooled for the measurement of total leukocyte. Remaining BAL fluid was centrifuged immediately at 4000 rpm for 20 min. The pellet formed in the bottom of the tube was used for the smear preparation for differential leukocyte count estimation. The smeared slides were fixed by alcohol and stained using Leishman's stain further carried for differential leukocyte count.

The test system of assay [2] is methacholine-induced bronchoconstriction. As to the kind of experiment: Methacholine challenge test (methacholine-induced bronchoconstriction), invasive whole body plethysmograph. Format: in vivo, male Dunkin Hartley guinea pig. Particulars: for inhibition at 10 mg/kg: Cavia porcellus, read-out: % inhibition in airway resistance (Mean ± SEM). The method, then:
The effect of Compound 52, tiotropium bromide and their combination on methacholine challenge test in male Dunkin Hartley guinea pig was evaluated using invasive whole body plethysmograph (Elan™ R C, Buxco apparatus). Animals and grouped as described in Table 2.
Animals were anesthetized by intraperitonial injection of urethane (1 g/kg). The surgical process carried out in the aseptic area. Right jugular vein of anesthetized animal was exposed and cannulated with fine bore polythene tube. Trachea was also cannulated for artificial respiration and to measure airway resistance. The prepared animal was fixed in the invasive whole body plethysmograph with artificial respiration (tidal volume −7 ml). Methacholine challenge test was performed and the recordings were taken by the following schedule. • First log period: Baseline −5 min • Second log period: Normal saline −3 min • Third log period: Methacholine −3 min
This protocol was performed for all groups. Compound 52 (10 mg/kg, i.p.) was injected 4 hour prior to methacholine challenge. Tiotropium (0.5 mcg/kg, i.v) was given at second log period. In third log period, the animal was injected with methacholine (60 mcg/kg/2 ml, i.v). The methacholine induced bronchoconstriction (expressed as airway resistance (RI value in cmH2O*sec/ml)) was recorded by Buxco apparatus.

The test system of assay [3] is LPS induced neutrophilia. As to the kind of experiment: LPS induced neutrophilia, Compound 52 and tiotropium. As to conditions: for inhibition at 3 mg/kg: Rattus norvegicus, Neutrophil, po. Format: in vivo, female SD rats. The method, then:
The effect of combination of Compound 52 and tiotropium on LPS induced neutrophilia in female SD rats was evaluated. Female SD rats were grouped as mentioned in Table 6. Compound 52 (3 mg/kg/5 ml) and tiotropium (1 mcg/ml as inhalation for 3 min at the rate of 0.05 ml/min) were administered 2 and 1 hour prior to LPS exposure respectively. LPS was nebulized at concentration of 100 mcg ml^−1 for 40 min at 0.4 ml min^−1 and a pressure of 1.7 psig in a perspex exposure chamber (1.5×1×1 ft) fitted with nebulizer (RCI Hudson). Control animals were given saline exposure under similar conditions.
Bronchoalveolar lavage (BAL) was done after 4 h of LPS exposure. Animal was anesthetized with urethane (1.2 gm/kg/5 mL, i.p. in normal saline) and BAL was done with PBS (3 ml). This procedure was repeated three times and the BAL fluid was pooled for the measurement of total leukocyte. BAL fluid was centrifuged immediately at 4000 rpm for 20 min and the pellet formed in the bottom of the tube was used for the smear preparation for differential leukocyte count estimation.

Assay [4] has as its system LPS induced neutrophilia. As to the kind of experiment: LPS induced neutrophilia, Compound 52 and ipratropium bromide. The class given is in vivo, male SD rats. Particulars: for inhibition at 6 mg/kg: Rattus norvegicus, Neutrophil, po. As for the experimental part: Animals were grouped as mentioned in Table 8. LPS at a concentration of 100 mcg ml^−1 was nebulized for 40 min at 0.4 ml/min and a pressure of 1.7 psig in a Perspex exposure chamber (1.5×1×1 ft) fitted with nebulizer (RCI Hudson). Control animals were given saline exposure under similar conditions. All the animals were treated as mentioned in Table 8. […] Bronchoalveolar lavage (BAL) was done after 4 h of LPS exposure. Animals were anesthetized with urethane (1.2 gm/kg/5 mL, i.p. in normal saline) and BAL was done with PBS (3 ml). This procedure was repeated three times and the BAL fluid was pooled for the measurement of total leukocyte. Remaining BAL fluid was centrifuged at 4000 rpm for 20 min. The pellet formed in the bottom of the tube was used for the smear preparation for differential leukocyte count estimation. The differential leukocyte count was done using Leishman's stain. […] Statistical significance was set at p<0.05.

Another assay deals with T1, human TRPA1 receptor (Homo sapiens, UniProt O75762).
T1 construct: expressed in transfected cells; host or cells: CHO cells
T1 sequence (O75762 whole entry): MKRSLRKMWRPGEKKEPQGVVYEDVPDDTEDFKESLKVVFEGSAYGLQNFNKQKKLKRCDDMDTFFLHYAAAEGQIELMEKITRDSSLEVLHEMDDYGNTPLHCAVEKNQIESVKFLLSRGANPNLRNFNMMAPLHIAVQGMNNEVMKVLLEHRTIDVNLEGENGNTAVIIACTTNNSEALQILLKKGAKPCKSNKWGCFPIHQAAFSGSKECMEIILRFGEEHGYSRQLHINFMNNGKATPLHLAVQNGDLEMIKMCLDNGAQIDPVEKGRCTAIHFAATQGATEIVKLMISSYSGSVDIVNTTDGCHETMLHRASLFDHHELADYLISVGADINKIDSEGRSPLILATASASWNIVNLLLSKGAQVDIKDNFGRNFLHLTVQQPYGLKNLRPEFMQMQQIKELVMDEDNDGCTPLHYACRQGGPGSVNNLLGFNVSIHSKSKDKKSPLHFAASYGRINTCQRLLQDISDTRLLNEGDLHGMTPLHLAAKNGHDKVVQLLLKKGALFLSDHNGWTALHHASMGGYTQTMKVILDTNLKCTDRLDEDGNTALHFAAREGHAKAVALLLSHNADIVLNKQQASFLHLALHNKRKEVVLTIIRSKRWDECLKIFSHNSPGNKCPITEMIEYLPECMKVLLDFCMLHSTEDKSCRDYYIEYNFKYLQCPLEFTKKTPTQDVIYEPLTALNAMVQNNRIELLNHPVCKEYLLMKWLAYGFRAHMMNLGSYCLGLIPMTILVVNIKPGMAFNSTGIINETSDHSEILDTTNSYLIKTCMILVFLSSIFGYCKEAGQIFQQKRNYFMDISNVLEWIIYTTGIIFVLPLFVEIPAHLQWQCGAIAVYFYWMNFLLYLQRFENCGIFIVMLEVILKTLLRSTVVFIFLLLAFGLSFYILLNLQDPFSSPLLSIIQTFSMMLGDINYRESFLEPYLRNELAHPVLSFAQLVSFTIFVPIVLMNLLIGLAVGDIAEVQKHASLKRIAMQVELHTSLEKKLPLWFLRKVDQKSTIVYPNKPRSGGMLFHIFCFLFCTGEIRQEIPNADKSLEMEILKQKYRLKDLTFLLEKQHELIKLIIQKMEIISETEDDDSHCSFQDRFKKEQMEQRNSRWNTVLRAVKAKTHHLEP
Kind of assay: Inhibition of AITC induced cellular uptake of radioactive calcium in human TRPA1 expressing CHO cells. The class given is cell-based. As to conditions: read-out: hTRPA1 IC50 values. As for the experimental part: The human IC50 values were measured by the following method:
The inhibition of TRPA1 receptor activation was measured as inhibition of allylisothiocyanate (AITC) induced cellular uptake of radioactive calcium.

The mark [5] stands for this setting: Compound 52 10 mg/kg i.p. 4 hour prior, tiotropium bromide 0.5 mcg/kg i.v., methacholine 60 mcg/kg i.v.
[6] abbreviates: BAL 4 h after LPS, Compound 52 3 mg/kg p.o., tiotropium 1 mcg/ml inh.
[7] abbreviates: BAL 4 h after LPS, Compound 52 6 mg/kg p.o., ipratropium 1 mg/ml inh.
The mark [8] stands for this setting: 4 h, read-out: No of neutrophils, % inhibition (mean ± S.E.M.).

The structures appear in SMILES notation. Read-outs that look alike come from different tables or passages of the source.

As for `O=C(O[C@H]1C[N+]2(CCCOc3ccccc3)CCC1CC2)C(O)(c1cccs1)c1cccs1.[Br-]` [Aclidinium bromide, [(8R)-1-(3-phenoxypropyl)-1-azoniabicyclo[2.2.2]octan-8-yl]2-hydroxy-2,2-dithiophen-2-ylacetate bromide, reference compound], in the assay with LPS induced neutrophilia [1], the “No of neutrophils (mean ± S.E.M.)” value was 7.13 ± 1.03 and the inhibition at 3 mg/kg is 21.1%.
Take `Cn1c(=O)c2c(CC(=O)Nc3nc(-c4ccc(F)c(C(F)(F)F)c4F)cs3)csc2n(C)c1=O` [Compound 52]: in assay [2] (setting [5]), the inhibition at 10 mg/kg was 37.9 ± 6.7%. In assay [2] (setting [5]), the “Mean airway resistance (Mean ± SEM)” value was 0.77 ± 0.11 cmH2O*sec/ml. The “No of neutrophils (mean ± S.E.M.)” value in the assay on LPS induced neutrophilia [1] came to 6.73 ± 0.72; with LPS induced neutrophilia [3] (setting [6]) it was 6.7 ± 0.9; with LPS induced neutrophilia [4] (setting [7]) it was 8.4 ± 0.8. Besides, the inhibition at 3 mg/kg is 20.4% with LPS induced neutrophilia [1] and 17.9% with LPS induced neutrophilia [3] (BAL 4 h after LPS, Compound 52 3 mg/kg p.o., tiotropium 1 mcg/ml inh, read-out: No of neutrophils, % inhibition (mean ± S.E.M.) (converted)). Moreover, the inhibition at 6 mg/kg with LPS induced neutrophilia [4] (BAL 4 h after LPS, Compound 52 6 mg/kg p.o., ipratropium 1 mg/ml inh, read-out: No of neutrophils, % inhibition (mean ± S.E.M.) (converted)) was -3.2%.
Turning to `Cn1c(=O)c2c(CC(=O)/N=c3\scc(-c4ccc(F)c(C(F)(F)F)c4F)n3COP(=O)(O)O)csc2n(C)c1=O` [Compound 96], the IC50 on human TRPA1 receptor was 559 nM.
On to `CC(C)[N+]1(C)[C@@H]2CC[C@H]1C[C@@H](OC(=O)C(CO)c1ccccc1)C2` (some centres unmarked) [Ipratropium bromide, 8-azoniabicyclo (3.2.1) octane, 3-(3-hydroxy-1-oxo-2-phenylpropoxy)-8-methyl-8-(1-methylethyl)-, bromide monohydrate, reference compound], for which, in the assay with LPS induced neutrophilia [4] (setting [7]), the “No of neutrophils (mean ± S.E.M.)” value stood at 6.2 ± 0.6. In the assay on LPS induced neutrophilia [4] (setting [8]), the inhibition at 6 mg/kg was 23%.
In the case of `C[N+]1(C)[C@@H]2C[C@@H](OC(=O)C(O)(c3cccs3)c3cccs3)C[C@H]1[C@@H]1O[C@@H]12` [Tiotropium bromide, (1α, 2β, 4β, 5α, 7β)-7-[(hydroxydi-2-thienylacetyl)oxy]-9,9-dimethyl-3-oxa-9-azoniatricyclo[3.3.1.02,4] nonane bromide monohydrate, reference compound], the inhibition at 10 mg/kg in assay [2] is -10.7 ± 23.4%. For the same compound, the “Mean airway resistance (Mean ± SEM)” value in assay [2] (setting [5]) was determined as 1.51 ± 0.32 cmH2O*sec/ml. The “No of neutrophils (mean ± S.E.M.)” value in the assay on LPS induced neutrophilia [3] (setting [6]) turned out to be 6.8 ± 0.7. Also, the inhibition at 3 mg/kg in the assay with LPS induced neutrophilia [3] (setting [8]) was 18.9%.

A word on the inhibition: it is the change of the read-out against control, counted positive when it falls. What is called IC50 is the concentration needed to halve the response being measured.

These data come from patent US20140364445A1, “PHARMACEUTICAL COMPOSITION COMPRISING A TRPA1 ANTAGONIST AND AN ANTICHOLINERGIC AGENT” (GLENMARK PHARMACEUTICALS S.A., priority 2011, published 2014).
